Measured values: ChEMBL document CHEMBL4043305, “Structure-Activity Relationship Study of Cyclic Pentapeptide Ligands for Atypical Chemokine Receptor 3 (ACKR3)” (J Med Chem, 2018)
Calls of active or inactive are those of the source. The rule behind the calls is not given here.

Key:
Assay type in all cases: cell-based
[1] = target: T1, Atypical chemokine receptor 3 (Homo sapiens, UniProt P25106); assay: Displacement of [125I]SDF-1alpha from ACKR3 (unknown origin) expressed in CHO cells at 30 uM after 1 hr by scintillation counting method
T1 sequence (P25106 whole entry): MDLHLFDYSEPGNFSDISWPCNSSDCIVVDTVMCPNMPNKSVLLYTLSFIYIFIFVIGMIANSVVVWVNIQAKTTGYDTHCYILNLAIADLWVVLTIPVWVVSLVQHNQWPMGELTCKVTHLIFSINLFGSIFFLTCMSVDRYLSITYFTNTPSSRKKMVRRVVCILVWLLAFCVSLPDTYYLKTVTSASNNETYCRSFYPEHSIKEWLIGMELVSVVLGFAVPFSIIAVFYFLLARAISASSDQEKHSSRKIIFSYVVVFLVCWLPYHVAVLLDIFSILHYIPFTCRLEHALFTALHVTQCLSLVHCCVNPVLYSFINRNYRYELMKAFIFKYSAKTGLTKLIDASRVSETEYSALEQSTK

[2] = target: C-X-C chemokine receptor type 4 (Homo sapiens, UniProt P61073); assay: Displacement of [125I]SDF-1alpha from CXCR4 (unknown origin) expressed in HEK293 cells after 1 hr by scintillation counting method
Chain of C-X-C chemokine receptor type 4 (P61073 whole entry): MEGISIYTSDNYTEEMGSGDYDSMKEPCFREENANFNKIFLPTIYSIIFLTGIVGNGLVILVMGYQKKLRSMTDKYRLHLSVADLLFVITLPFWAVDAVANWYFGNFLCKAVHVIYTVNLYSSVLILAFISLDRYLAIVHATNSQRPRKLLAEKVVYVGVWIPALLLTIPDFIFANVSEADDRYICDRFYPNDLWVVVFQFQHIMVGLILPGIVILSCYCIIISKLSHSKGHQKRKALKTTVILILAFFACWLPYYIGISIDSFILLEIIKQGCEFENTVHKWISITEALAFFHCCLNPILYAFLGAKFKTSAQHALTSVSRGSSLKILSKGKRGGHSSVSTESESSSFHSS

[3] = target: T1, Atypical chemokine receptor 3; assay: Displacement of [125I]SDF-1alpha from ACKR3 (unknown origin) expressed in CHO cells after 1 hr by scintillation counting method
[4] = target: T1, Atypical chemokine receptor 3; assay: Activation of YFP-tagged ACKR3 (unknown origin) expressed in HEK293E cells assessed as induction of Rluc-tagged beta-arrestin-2 recruitment after 30 mins by BRET assay
[5] = target: Atypical chemokine receptor 3 (Homo sapiens, UniProt P25106, D179N); assay: Activation of YFP-tagged ACKR3 D179N mutant (unknown origin) expressed in HEK293E cells assessed as induction of Rluc-tagged beta-arrestin-2 recruitment after 30 mins by BRET assay
Chain of Atypical chemokine receptor 3 (Homo sapiens, UniProt P25106, D179N) (P25106 whole entry D179N): as the sequence (P25106 whole entry) above, with D179N counted along it

[6] = target: Atypical chemokine receptor 3 (Homo sapiens, UniProt P25106, S198R); assay: Activation of YFP-tagged ACKR3 S198R mutant (unknown origin) expressed in HEK293E cells assessed as induction of Rluc-tagged beta-arrestin-2 recruitment after 30 mins by BRET assay
Chain of Atypical chemokine receptor 3 (Homo sapiens, UniProt P25106, S198R) (P25106 whole entry S198R): as the sequence (P25106 whole entry) above, with S198R counted along it

[7] = target: Atypical chemokine receptor 3 (Homo sapiens, UniProt P25106, D275N); assay: Activation of YFP-tagged ACKR3 D275N mutant (unknown origin) expressed in HEK293E cells assessed as induction of Rluc-tagged beta-arrestin-2 recruitment after 30 mins by BRET assay
Chain of Atypical chemokine receptor 3 (Homo sapiens, UniProt P25106, D275N) (P25106 whole entry D275N): as the sequence (P25106 whole entry) above, with D275N counted along it

Compound | IC50 [2] [nM] | IC50 [3] [nM] | also measured
CN1C(=O)[C@H](CC(N)=O)NC(=O)[C@@H](Cc2ccc(O)cc2)NC(=O)[C@@H]2CCCN2C(=O)[C@H](Cc2ccc3ccccc3c2)NC(=O)[C@@H]1CCCNC(=N)N | > 30000 | – | inhibition [1]: inactive
CN1C(=O)[C@H](CC(=O)O)NC(=O)[C@@H](Cc2ccc(O)cc2)NC(=O)[C@@H]2CCCN2C(=O)[C@H](Cc2ccc3ccccc3c2)NC(=O)[C@@H]1CCCNC(=N)N | > 30000 | – | inhibition [1]: inactive
CN1C(=O)[C@H](CCCNC(=N)N)NC(=O)[C@@H](Cc2ccc(O)cc2)NC(=O)[C@@H]2CCCN2C(=O)[C@H](Cc2ccc3ccccc3c2)NC(=O)[C@@H]1CCCNC(=N)N | > 30000 | 860 | EC50 [4]: 91 nM; EC50 ([5]; read-out: EC50): 2200 nM; EC50 ([5]; read-out: pEC50 (converted)): 2510 nM; EC50 ([6]; read-out: EC50): 270 nM; EC50 ([6]; read-out: pEC50 (converted)): 316 nM; EC50 ([7]; read-out: EC50): 360 nM
CN1C(=O)[C@H](CCCNC(=N)N)NC(=O)[C@@H](Cc2ccc(O)cc2)NC(=O)[C@H](Cc2cccc3ccccc23)N(C)C(=O)[C@H](Cc2ccc3ccccc3c2)NC(=O)[C@@H]1CCCNC(N)=O | 17000 | 170 | EC50 [4]: 490 nM; EC50 ([5]; read-out: EC50): 110 nM; EC50 ([5]; read-out: pEC50 (converted)): 126 nM; EC50 ([6]; read-out: EC50): 1900 nM; EC50 ([7]; read-out: EC50): 5500 nM; EC50 ([7]; read-out: pEC50 (converted)): 6310 nM
CN1C(=O)[C@H](CCCNC(=N)N)NC(=O)[C@@H](Cc2ccc(O)cc2)NC(=O)[C@@H]2CCCN2C(=O)[C@H](Cc2ccc3ccccc3c2)NC(=O)[C@@H]1CC(=O)O | > 30000 | – | inhibition [1]: inactive
CN1C(=O)[C@H](CCCNC(=N)N)NC(=O)[C@@H](Cc2ccccc2F)NC(=O)[C@@H]2CCCN2C(=O)[C@H](Cc2ccc3ccccc3c2)NC(=O)[C@@H]1CCCNC(N)=O | > 30000 | 410 | –
CN1C(=O)[C@H](CCC(=O)O)NC(=O)[C@@H](Cc2ccc(O)cc2)NC(=O)[C@@H]2CCCN2C(=O)[C@H](Cc2ccc3ccccc3c2)NC(=O)[C@@H]1CCCNC(=N)N | > 30000 | – | inhibition [1]: inactive
CN1C(=O)[C@H](CCCNC(=N)N)NC(=O)[C@@H](Cc2c[nH]c3ccccc23)NC(=O)[C@@H]2CCCN2C(=O)[C@H](Cc2ccc3ccccc3c2)NC(=O)[C@@H]1CCCNC(N)=O | > 30000 | 3200 | –
CN1C(=O)[C@H](CCCNC(=N)N)NC(=O)[C@@H](Cc2ccc(O)cc2)NC(=O)[C@@H]2CCCN2C(=O)[C@H](Cc2ccc3ccccc3c2)NC(=O)[C@@H]1CCC(=O)O | > 30000 | – | inhibition [1]: inactive
CN1C(=O)[C@H](CCCNC(=N)N)NC(=O)[C@@H](Cc2ccc(O)cc2)NC(=O)[C@H](Cc2c[nH]c3ccccc23)NC(=O)[C@H](Cc2ccc3ccccc3c2)NC(=O)[C@@H]1CCCNC(N)=O | > 30000 | 850 | –
CN1C(=O)[C@H](CCCNC(=N)N)NC(=O)[C@@H](Cc2ccc(O)cc2)NC(=O)[C@H](Cc2ccc(O)cc2)N(C)C(=O)[C@H](Cc2ccc3ccccc3c2)NC(=O)[C@@H]1CCCNC(N)=O | > 30000 | 1800 | –
CC(C)[C@H]1C(=O)N[C@H](Cc2ccc(O)cc2)C(=O)N[C@@H](CCCNC(=N)N)C(=O)N(C)[C@@H](CCCNC(N)=O)C(=O)N[C@@H](Cc2ccc3ccccc3c2)C(=O)N1C | > 30000 | 4900 | –
C[C@@H](O)[C@@H]1NC(=O)[C@@H](Cc2ccc(O)cc2)NC(=O)[C@@H]2CCCN2C(=O)[C@H](Cc2ccc3ccccc3c2)NC(=O)[C@H](CCCNC(=N)N)N(C)C1=O | > 30000 | 2000 to 24000 | –
CN1C(=O)[C@H](CCCCNC(=N)N)NC(=O)[C@@H](Cc2ccc(O)cc2)NC(=O)[C@@H]2CCCN2C(=O)[C@H](Cc2ccc3ccccc3c2)NC(=O)[C@@H]1CCCNC(=N)N | > 30000 | 840 | –
CN1C(=O)[C@H](CCCNC(=N)N)NC(=O)[C@@H](Cc2ccc([N+](=O)[O-])cc2)NC(=O)[C@@H]2CCCN2C(=O)[C@H](Cc2ccc3ccccc3c2)NC(=O)[C@@H]1CCCNC(N)=O | > 30000 | 2000 | –
CN1C(=O)[C@H](CCCNC(=N)N)NC(=O)[C@@H](Cc2ccc(O)cc2)NC(=O)[C@H](Cc2ccc3ccccc3c2)N(C)C(=O)[C@H](Cc2ccc3ccccc3c2)NC(=O)[C@@H]1CCCNC(N)=O | > 30000 | 2600 | –
CN1C(=O)[C@H](CCCNC(=N)N)NC(=O)[C@@H](Cc2ccc(O)cc2)NC(=O)[C@@H]2C[C@@H]3CCCC[C@@H]3N2C(=O)[C@H](Cc2ccc3ccccc3c2)NC(=O)[C@@H]1CCCNC(N)=O | > 30000 | 350 | –
